Test results: patent publication US5747247A, “Spectroscopic helicase assay” (The Regents of The University of California, priority 1994, dated 1998)

What was measured:
[1] = test system: E. coli helicase I, helicase II (uvrD), and rep proteins; settings: George et al., cited from earlier work; for Ki: read-out: Ki for ATPase and helicase activities
helicase = settings: other studies (refs 46-48); cited from earlier work
recBCD enzyme [2] = experiment: Dye displacement fluorometric helicase assay (DNA unwinding followed by dye fluorescence); type: biochemical, E. coli; settings: for Apparent rate of unwinding at which the dye titration levels off: 0.5 nM total recBCD, 2 uM SSB, plateau at ~150 nM for H33258 and TO and 375 nM for DAPI; for Apparent rate of unwinding at which the dye titration levels off / Vmax, observed rate of unwinding at saturating enzyme: 20° C.; for Increase of Vmax in absence of SSB protein relative to its presence: SSB protein omitted vs present; for Vmax, observed rate of unwinding: SSB protein omitted; for Vmax, observed rate of unwinding / Vmax, observed rate of unwinding at saturating enzyme: 250 nM DAPI, 100 nM H33258, 300 nM TO; for Vmax, observed rate of unwinding at saturating enzyme / Apparent energy of activation (Ea) of unwinding: with SSB protein; for Vmax, observed rate of unwinding at saturating enzyme: SSB assay gives 250±25; for Apparent energy of activation (Ea) of unwinding: Arrhenius plots from 20°, 25°, 32°, 37° C., SSB assay 9.7
Experimental: (§1) Fluorometric helicase assay: The standard reaction buffer consisted of 25 mM Tris-acetate (pH 7.5), 1 mM Mg(OAc)2, and 1 mM DTT. When SSB protein was included, it was present at a 3-fold molar excess, assuming a site size of 15 nucleotides/monomer under stoichiometric conditions. This corresponds to a protein concentration which is 20% of the DNA (nucleotide) concentration. The DNA substrate was BamHI-digested pBR322 DNA, at a concentration of 10 uM nucleotide (2.1 nM ends).
(§2) The reaction (350 ul total volume) contained standard buffer, linear pBR322 DNA, and the indicated concentration of recBCD enzyme. […] The fluorescence signal due to these components was zeroed out. The fluorophore (either SSB protein or dye) was then added, and the reaction was allowed to equilibrate to the indicated temperature. Unwinding was initiated by the addition of ATP to 3 mM final concentration. […] For SSB protein fluorescence measurements, the value for 100% unwinding was calculated as described previously (28, 41). For dye fluorescence experiments, the value for complete unwinding was obtained by subtracting the fluorescence in the presence of an equimolar amount of ssDNA (i.e., heat-denatured pBR322) (FssDNA) from the fluorescence at the start of the reaction (FdsDNA). The difference in these values (FdsDNA -FssDNA) was taken to be the maximum fluorescence change possible if all of the DNA molecules were fully unwound (Fexp). The observed fluorescence change (Fobs) was divided by this differ ence to obtain the extent of unwinding. Initial rates were then calculated as described previously (28).
(§3) Fluorescence measurements were carried out on a Shimadzu RF5000U spectrofluorophotometer. When the intrinsic fluorescence of SSB protein was measured, the excitation and emission wavelengths were set at 290 and 340 nm, respectively. The excitation and emission wavelengths for the various dyes were determined experimentally in the presence of dsDNA. For AO, these values were 487 and 510 nm; for DAPI, 345 and 467 nm; for EB, 546 and 590 nm; for EHD, 552 and 596 nm; for H33258, 344 and 487 nm; and for TO, 504 and 528 nm. When SSB protein fluorescence was monitored, the band widths were 1.5 and 10 nm for the excitation and emission slits, respectively; for all of the dye fluorescence experiments, these values were 5 and 10 nm, respectively.
To determine whether the presence of dyes affected the observed rate of unwinding, the reaction (including SSB protein) was performed at several concentrations of DAPI, H33258, and TO. The reactions were performed at 20° C. in standard buffer with 10 uM nucleotide (2.1 nM ends) linear pBR322 DNA, 2 uM SSB protein, 0.5 nM total (0.17 nM functional) recBCD enzyme, and the indicated concentration of dye. Unwinding was initiated by adding ATP to a final concentration of 3 mM. […] For each dye (DAPI (.circle-solid.), H33258 (o), or TO (.tangle-solidup.), the initial rate of unwinding was determined as described in the Experimental Procedures and is plotted in panel B as a function of dye concentration. Due to the lag behavior illustrated in panel A, the data at concentrations ≤100 nM are considered unreliable, as indicated by shading this portion of the graph.
In FIG. 4A, raw data from an experiment in which recBCD enzyme concentration was varied at a given concentration of TO are shown; SSB protein was included to allow comparison to previous results. From results such as these, using either DAPI, H33258, or TO, the data in FIG. 4B were generated. Unwinding was performed as in FIG. 3, except that the concentration of recBCD enzyme was varied, and a constant concentration of fluorophore (250 nM for DAPI; 100 nM for H33258; and 300 nM for TO) was used. In panel A, a portion of the raw data obtained with TO are shown. The observed rates of unwinding derived from such experiments are shown in panel B. DAPI, .circle-solid.; H33258, o; TO, .tangle-solidup.. […]

recBCD enzyme [3] = target: T1, recBCD enzyme (Escherichia coli, UniProt P04993+P07648+P08394); experiment: SSB protein fluorescence assay of DNA unwinding in presence of fluorescent dyes; type: biochemical, E. coli; settings: for Rate of DNA unwinding: 20° C., 2 uM SSB protein, 0.5 nM total recBCD enzyme, none = 40.7 ± 4.1
T1 construct: made in house
T1 sequence (P07648 whole entry): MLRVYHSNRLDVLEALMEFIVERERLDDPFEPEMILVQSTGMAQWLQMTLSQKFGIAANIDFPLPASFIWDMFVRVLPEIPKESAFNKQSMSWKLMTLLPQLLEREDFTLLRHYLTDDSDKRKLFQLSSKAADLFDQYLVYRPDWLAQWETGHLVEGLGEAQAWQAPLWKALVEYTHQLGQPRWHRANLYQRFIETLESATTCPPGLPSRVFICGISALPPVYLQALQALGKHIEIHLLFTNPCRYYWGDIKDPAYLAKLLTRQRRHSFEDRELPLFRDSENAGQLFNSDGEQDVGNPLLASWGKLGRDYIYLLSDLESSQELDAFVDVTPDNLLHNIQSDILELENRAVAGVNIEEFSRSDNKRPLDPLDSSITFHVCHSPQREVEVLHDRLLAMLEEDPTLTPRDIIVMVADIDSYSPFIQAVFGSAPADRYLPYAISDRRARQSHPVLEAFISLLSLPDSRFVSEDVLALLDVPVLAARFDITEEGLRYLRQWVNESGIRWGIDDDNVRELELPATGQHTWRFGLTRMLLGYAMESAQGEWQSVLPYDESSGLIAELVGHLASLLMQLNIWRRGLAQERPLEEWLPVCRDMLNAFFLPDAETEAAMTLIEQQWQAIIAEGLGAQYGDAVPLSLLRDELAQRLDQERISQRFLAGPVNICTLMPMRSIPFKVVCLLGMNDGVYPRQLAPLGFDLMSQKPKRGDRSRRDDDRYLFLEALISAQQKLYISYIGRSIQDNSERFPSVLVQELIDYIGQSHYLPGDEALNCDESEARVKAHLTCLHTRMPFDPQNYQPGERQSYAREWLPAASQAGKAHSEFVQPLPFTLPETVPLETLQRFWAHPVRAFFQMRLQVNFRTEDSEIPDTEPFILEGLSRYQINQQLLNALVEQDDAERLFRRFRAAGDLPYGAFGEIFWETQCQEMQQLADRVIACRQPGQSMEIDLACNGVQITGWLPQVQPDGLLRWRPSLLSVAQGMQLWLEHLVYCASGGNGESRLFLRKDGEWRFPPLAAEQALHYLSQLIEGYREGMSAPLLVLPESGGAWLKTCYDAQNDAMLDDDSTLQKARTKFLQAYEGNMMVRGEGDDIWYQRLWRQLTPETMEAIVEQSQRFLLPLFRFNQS
T1 sequence (P04993 whole entry): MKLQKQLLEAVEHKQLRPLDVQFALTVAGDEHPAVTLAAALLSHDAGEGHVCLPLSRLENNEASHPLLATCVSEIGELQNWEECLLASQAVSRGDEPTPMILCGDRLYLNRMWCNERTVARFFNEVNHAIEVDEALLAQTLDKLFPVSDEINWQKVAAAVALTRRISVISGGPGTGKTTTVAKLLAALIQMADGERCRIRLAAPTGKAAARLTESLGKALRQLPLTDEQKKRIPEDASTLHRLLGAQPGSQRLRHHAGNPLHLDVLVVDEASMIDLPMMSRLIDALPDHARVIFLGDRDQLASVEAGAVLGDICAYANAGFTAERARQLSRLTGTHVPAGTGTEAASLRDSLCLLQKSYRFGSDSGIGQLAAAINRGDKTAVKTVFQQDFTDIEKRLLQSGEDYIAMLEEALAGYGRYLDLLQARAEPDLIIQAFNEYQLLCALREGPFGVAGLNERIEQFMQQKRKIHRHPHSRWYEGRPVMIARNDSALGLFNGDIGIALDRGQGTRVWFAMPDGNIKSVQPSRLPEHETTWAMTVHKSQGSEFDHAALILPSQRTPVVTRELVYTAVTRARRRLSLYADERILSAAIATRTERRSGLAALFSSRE
T1 sequence (P08394 whole entry): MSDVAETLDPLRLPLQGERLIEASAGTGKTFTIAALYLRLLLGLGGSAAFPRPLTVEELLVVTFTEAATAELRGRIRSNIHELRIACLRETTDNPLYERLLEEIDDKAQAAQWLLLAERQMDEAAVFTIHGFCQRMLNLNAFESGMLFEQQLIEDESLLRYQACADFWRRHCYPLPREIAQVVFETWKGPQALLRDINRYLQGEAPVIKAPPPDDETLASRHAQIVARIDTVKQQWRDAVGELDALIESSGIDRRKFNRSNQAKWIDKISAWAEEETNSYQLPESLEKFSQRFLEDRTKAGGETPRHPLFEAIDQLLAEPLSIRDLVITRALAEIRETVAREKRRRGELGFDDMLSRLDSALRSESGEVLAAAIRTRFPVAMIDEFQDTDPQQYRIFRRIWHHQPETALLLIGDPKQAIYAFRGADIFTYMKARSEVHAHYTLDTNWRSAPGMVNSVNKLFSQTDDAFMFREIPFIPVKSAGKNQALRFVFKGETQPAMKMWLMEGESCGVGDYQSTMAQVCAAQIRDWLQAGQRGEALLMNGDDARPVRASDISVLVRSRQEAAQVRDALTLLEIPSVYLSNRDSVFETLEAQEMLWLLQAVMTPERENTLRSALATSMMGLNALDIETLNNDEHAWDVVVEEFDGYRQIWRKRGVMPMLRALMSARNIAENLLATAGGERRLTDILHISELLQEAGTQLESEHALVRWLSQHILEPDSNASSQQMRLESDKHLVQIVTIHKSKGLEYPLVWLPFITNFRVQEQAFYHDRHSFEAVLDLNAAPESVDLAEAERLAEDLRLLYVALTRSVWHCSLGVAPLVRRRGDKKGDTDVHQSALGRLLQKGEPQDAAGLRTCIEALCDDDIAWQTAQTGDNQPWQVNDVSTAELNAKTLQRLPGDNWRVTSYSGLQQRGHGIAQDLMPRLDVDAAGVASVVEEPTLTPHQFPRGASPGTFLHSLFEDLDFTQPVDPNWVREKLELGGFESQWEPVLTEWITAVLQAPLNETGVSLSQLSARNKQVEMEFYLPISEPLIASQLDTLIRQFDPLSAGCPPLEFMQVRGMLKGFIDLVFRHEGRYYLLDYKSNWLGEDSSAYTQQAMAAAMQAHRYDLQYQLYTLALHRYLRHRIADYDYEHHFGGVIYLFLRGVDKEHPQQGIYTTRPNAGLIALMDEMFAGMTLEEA
Experimental: as §1, §2, §3
The unwinding reaction was performed at 20° C. in buffer containing 25 mM Tris-acetate (pH 7.5), 1 mM Mg(OAc)2, 3 mM ATP, 1 mM DTT, 10 uM nucleotide BamHI-digested pBR322 DNA, 2 uM SSB protein, 0.5 nM total (0.17 nM functional) recBCD enzyme, and the indicated concentrations of dye. SSB protein fluorescence was monitored.

Row | SMILES | Ki [1] [µM] | Apparent rate of unwinding at which the dye titration levels off (recBCD enzyme [2]) | Increase of Vmax in absence of SSB protein relative to its presence (recBCD enzyme [2]) | Vmax, observed rate of unwinding (recBCD enzyme [2]) [nM bp/s] | Vmax, observed rate of unwinding at saturating enzyme (recBCD enzyme [2]) [nM bp/s] | Apparent energy of activation (Ea) of unwinding (recBCD enzyme [2]) [kcal/mol] | Rate of DNA unwinding (recBCD enzyme [3]; 100 nM dye) [nm bp/s] | Rate of DNA unwinding (recBCD enzyme [3]; 250 nM dye) [nm bp/s] | also measured
1 | N=C(N)c1ccc(-c2cc3ccc(C(=N)N)cc3[nH]2)cc1 | 1 to 10 | – | – | – | – | – | – | – | –
2 | CN(C)c1ccc2cc3ccc(N(C)C)cc3nc2c1 [AO, acridine orange] | 1 to 10 | – | – | – | – | – | – | – | –
3 | COc1c(O)c2c(c3cc(C(=O)N4CCc5c4c(O)c(OC)c4[nH]c(C(=O)N6CC7CC78C6=CC(=O)c6[nH]cc(C)c68)cc54)[nH]c13)CCN2C(N)=O (stereo not shown) [CC-1065] | – | – | – | – | – | – | – | – | Inhibition of helicase activity (helicase): inhibition of helicase activity
4 | CN1CCN(c2ccc3[nH]c(-c4ccc5[nH]c(-c6ccc(O)cc6)nc5c4)nc3c2)CC1 [H33258, Hoechst 33258] | 1 to 10 | 20-25 nM bp/s | 25-50% | 272±30 | 221±25 | 9.9 | 36.1 ± 4.5 | 35.5 ± 1.9 | Rate of unwinding at optimal dye concentration compared with SSB protein fluorescence assay (recBCD enzyme [2]; 400 nm DAPI, 300 nm H33258): within experimental error, equal to those obtained using the SSB protein fluorescence assay; Effect on observed rate of unwinding (recBCD enzyme [3]; dye at 100 or 250 nM, low enzyme concentration): does not affect the observed rate of unwinding
5 | CN1C(=Cc2cc[n+](C)c3ccccc23)Sc2ccccc21 [TO, thiazole orange] | – | 20-25 nM bp/s | 25-50% | 330±25 | 211±15 | 9.7 | 35.6 ± 1.3 | 31.9 ± 0.7 | inhibition at 0.25 µM (recBCD enzyme [3]; read-out: Decrease of observed rate of unwinding): < 20%
6 | O=C1c2c(O)ccc(O)c2C(=O)c2c(NCCNCCO)ccc(NCCNCCO)c21 [mitoxantrone] | – | – | – | – | – | – | – | – | Inhibition of helicases ([1]; dependent upon ligand and enzyme): potent but differential inhibition
